The NIST ThermoML archive (doi:10.1016/j.fluid.2006.03.009)
Numbers after ± are expanded uncertainties.

Details: Liquid

vapor or sublimation pressure (273.15 K) [kPa] | vapor or sublimation pressure (278.15 K) [kPa] | vapor or sublimation pressure (283.15 K) [kPa] | vapor or sublimation pressure (293.15 K) [kPa] | vapor or sublimation pressure (303.15 K) [kPa] | vapor or sublimation pressure (313.15 K) [kPa] | Structure (SMILES)
474 ± 2.6 | 550.8 ± 2.8 | 636 ± 2.9 | 836.2 ± 3.4 | 1077.6 ± 4 | 1368 ± 4.7 | CCC [propane]
586 ± 2.8 | 678.5 ± 3 | 780.8 ± 3.3 | 1019 ± 3.8 | 1307.6 ± 4.6 | 1652.2 ± 5.6 | C=CC [propene]
